Assay [1] concerns human cardiac fibroblasts. Nature of the assay: cGMP generation in cardiac fibroblast cells (competitive RIA). It is filed as cell-based. The settings on record: 10^−11 M, 10^−8 M, or 10^−6 M for 10 minutes, FIGS. 9-11. The protocol: The biological effects of ABC-NP, ABC-NP1, or BC-NP2 on cardiac fibroblast cells were tested in vitro. Briefly, 80-90% confluent cardiac fibroblast cells were incubated in Hank's balanced salt solution (InVitrogen) containing 20 mmol/L N-[2-hydroxyethyl]piperazine-N′[2-ethanesulfonic acid], 0.1% bovine serum albumin, and 0.5 mmol/L 3-isobutyl-1-methylzanthine (Sigma). Treated cells received ANP (10^−6M), BNP (10^−6M), CNP (10^−6M), ABC-NP (10^−11M, 10^−8M, or 10^−6M), ABC-NP1 (10^−11 M, 10^−8 M, or 10^−6 M), or BC-NP2 (10^−11M, 10^−8 M, or 10^−6 M) for 10 minutes. Cells were lysed in 6% TCA and sonicated for 10 minutes. The samples were ether extracted four times in four volumes of ether, dried, and reconstituted in 300 μL cGMP assay buffer. The samples were assayed using a competitive RIA cGMP kit (Perkin-Elmer, Boston, Mass.). Briefly, samples and standards were incubated with 100 μL anti-human cGMP polyclonal antibody and I^125-antigen for 18 hours. cGMP assay buffer was added to the samples, and they were centrifuged for 20 minutes at 2500 rpm. The free fraction was aspirated off; the bound fraction was counted; and concentrations determined Samples were corrected for dilution factors, and values were expressed as pmoles/mL. There is no cross-reactivity with ANP, BNP, or CNP, and there is <0.001% reactivity with cAMP, GMP, GDP, ATP, and GTP.

The subject of assay [2] is normal dogs. Nature of the assay: Intravenous bolus of polypeptide in normal dogs (renal, haemodynamic and hormonal effects). The settings on record: 25 μg per kg IV bolus; for mean arterial blood pressure: FIG. 6; for plasma vasopressin levels: FIG. 7; for renal blood flow: FIG. 8; for vasodilatory effects: concluded from mean arterial blood pressure and renal blood flow. The class given is in vivo, dog. Here is the method:
Polypeptides with the sequences set forth in FIGS. 1-3 were designed and synthesized. The polypeptide set forth in FIG. 1 is referred to as an ABC-NP polypeptide; the polypeptide set forth in FIG. 2 is referred to as an ABC-NP1 polypeptide; and the polypeptide set forth in FIG. 3 is referred to as a BC-NP2 polypeptide. The biological effects of intravenous ABC-NP, ABC-NP1, or BC-NP2 infusion were tested in normal dogs. Briefly, five normal dogs were infused with 25 μg of ABC-NP, ABC-NP1, or BC-NP2 per kg administered as an IV bolus. Urinary sodium excretion, urine flow, mean arterial blood pressure, plasma vasopressin levels, and renal blood flow were measured as described elsewhere (Chen et al., Am. J. Physiol. Regul. Integr. Comp. Physiol., 288: R1093-R1097 (2005) and Haber et al., J. Clin. Endocrinol. Metab., 29:1349-1355 ([…])). The results were compared to results obtained from dogs treated with 25 μg of BNP per kg administered as an IV bolus.

As to “ABC-NP1: 33-residue polypeptide: human mature ANP residues 11-15, human mature CNP residues 1-22, human mature BNP residues 27-32 (RMDRIGLSKGCFGLKLDRIGSMSGLGCKVLRRH; combination of SEQ ID NOs1, 7, and 3)”, the cGMP activation result in assay [1] is listed as “activated cGMP”. In addition, in assay [2], the “mean arterial blood pressure” value is “reduction”, the plasma vasopressin levels entry is on record as “strong trend for increasing” and the renal blood flow entry is listed as “increase”. The “prolonged aquaretic and diuretic renal actions” value in assay [2] (FIGS. 4 and 5) is “no prolonged aquaretic and diuretic renal actions observed”.

With “BC-NP2: 28-residue polypeptide: human CNP 1-22 with positions 15-17 changed to arginine, glutamic acid, alanine, then human BNP residues 27-32 (GLSKGCFGLKLDRIREASGLGCKVLRRH; combination of SEQ ID NOs2 and 3)”, the cGMP activation entry in assay [1] is on record as “did not”. Further, in assay [2], the “mean arterial blood pressure” value was “did not result in a decrease”, the renal blood flow result is given as “did not result in a decrease in mean arterial blood pressure or an increase in renal blood flow” and the vasodilatory effects entry is “does not have vasodilatory effects”. Further, the “renal effects as compared to ABC-NP” value in assay [2] (FIGS. 4 and 5) is on record as “about 50%”.

As to “ABC-NP: 33-residue polypeptide: human ANP residues 11-15, human CNP 1-22 with positions 15-17 changed to Arg-Glu-Ala, human BNP residues 27-32 (RMDRIGLSKGCFGLKLDRIREASGLGCKVLRRH; combination of SEQ ID NOs1, 2, and 3)”, in assay [1], the cGMP activation entry is “did not”. Also, in assay [2], the “mean arterial blood pressure” value was “no effect”, the plasma vasopressin levels entry is “did not increase” and the vasodilatory effects result is “does not have vasodilatory effects”. In addition, the “aquaretic and natriuretic effects (urinary sodium excretion, urine flow)” value in assay [2] (FIGS. 4 and 5) is “resulted in aquaretic and natriuretic effects”.

As for “BNP: natriuretic peptide of myocardial cell origin; main form a 32 amino acid polypeptide with a ring structure; comparator [reference compound]”, in assay [2], the plasma vasopressin levels result is recorded as “increased”.

For the origin of these results see patent publication US9469682B2, “Methods of treatment using natriuretic polypeptides” (Mayo Foundation for Medical Education and Research, priority 2006, dated 2016).
